What was measured:
[1] = target: Vascular endothelial growth factor receptor 2 (Homo sapiens, UniProt P35968)
[2] = target: T1, ALK tyrosine kinase receptor (Homo sapiens, UniProt Q9UM73)
[3] = tested on: IMR-32; assay: Cytotoxicity against human IMR32 cells; assay type: functional, cell-based
[4] = tested on: SH-SY5Y; assay: Cytotoxicity against human SH-SY5Y cells; assay type: functional, cell-based
[5] = physchem; settings: octanol/water
[6] = tested on: NCI-H3122; assay: cells; settings: Homo sapiens
[7] = target: Hepatocyte growth factor receptor (Homo sapiens, UniProt P08581); assay: Inhibition of c-MET (unknown origin) by kinome scan-based assay
[8] = tested on: NCI-H3122; assay: Cytotoxicity against human NCI-H3122 cells harboring EML4-ALK E13;A20 mutant incubated for 72 hrs by Cell titer blue assay; assay type: functional, cell-based; settings: NCI-H3122, 72 h
[9] = tested on: NCI-H3122; assay: Potency index, ratio of crizotinib IC50 to test compound IC50 for cytotoxicity against human NCI-H3122 cells harboring EML4-ALK E13;A20 mutant; assay type: functional
[10] = target: T1, ALK tyrosine kinase receptor; remark: listed apart in the source

T1 sequence (Q9UM73 whole entry): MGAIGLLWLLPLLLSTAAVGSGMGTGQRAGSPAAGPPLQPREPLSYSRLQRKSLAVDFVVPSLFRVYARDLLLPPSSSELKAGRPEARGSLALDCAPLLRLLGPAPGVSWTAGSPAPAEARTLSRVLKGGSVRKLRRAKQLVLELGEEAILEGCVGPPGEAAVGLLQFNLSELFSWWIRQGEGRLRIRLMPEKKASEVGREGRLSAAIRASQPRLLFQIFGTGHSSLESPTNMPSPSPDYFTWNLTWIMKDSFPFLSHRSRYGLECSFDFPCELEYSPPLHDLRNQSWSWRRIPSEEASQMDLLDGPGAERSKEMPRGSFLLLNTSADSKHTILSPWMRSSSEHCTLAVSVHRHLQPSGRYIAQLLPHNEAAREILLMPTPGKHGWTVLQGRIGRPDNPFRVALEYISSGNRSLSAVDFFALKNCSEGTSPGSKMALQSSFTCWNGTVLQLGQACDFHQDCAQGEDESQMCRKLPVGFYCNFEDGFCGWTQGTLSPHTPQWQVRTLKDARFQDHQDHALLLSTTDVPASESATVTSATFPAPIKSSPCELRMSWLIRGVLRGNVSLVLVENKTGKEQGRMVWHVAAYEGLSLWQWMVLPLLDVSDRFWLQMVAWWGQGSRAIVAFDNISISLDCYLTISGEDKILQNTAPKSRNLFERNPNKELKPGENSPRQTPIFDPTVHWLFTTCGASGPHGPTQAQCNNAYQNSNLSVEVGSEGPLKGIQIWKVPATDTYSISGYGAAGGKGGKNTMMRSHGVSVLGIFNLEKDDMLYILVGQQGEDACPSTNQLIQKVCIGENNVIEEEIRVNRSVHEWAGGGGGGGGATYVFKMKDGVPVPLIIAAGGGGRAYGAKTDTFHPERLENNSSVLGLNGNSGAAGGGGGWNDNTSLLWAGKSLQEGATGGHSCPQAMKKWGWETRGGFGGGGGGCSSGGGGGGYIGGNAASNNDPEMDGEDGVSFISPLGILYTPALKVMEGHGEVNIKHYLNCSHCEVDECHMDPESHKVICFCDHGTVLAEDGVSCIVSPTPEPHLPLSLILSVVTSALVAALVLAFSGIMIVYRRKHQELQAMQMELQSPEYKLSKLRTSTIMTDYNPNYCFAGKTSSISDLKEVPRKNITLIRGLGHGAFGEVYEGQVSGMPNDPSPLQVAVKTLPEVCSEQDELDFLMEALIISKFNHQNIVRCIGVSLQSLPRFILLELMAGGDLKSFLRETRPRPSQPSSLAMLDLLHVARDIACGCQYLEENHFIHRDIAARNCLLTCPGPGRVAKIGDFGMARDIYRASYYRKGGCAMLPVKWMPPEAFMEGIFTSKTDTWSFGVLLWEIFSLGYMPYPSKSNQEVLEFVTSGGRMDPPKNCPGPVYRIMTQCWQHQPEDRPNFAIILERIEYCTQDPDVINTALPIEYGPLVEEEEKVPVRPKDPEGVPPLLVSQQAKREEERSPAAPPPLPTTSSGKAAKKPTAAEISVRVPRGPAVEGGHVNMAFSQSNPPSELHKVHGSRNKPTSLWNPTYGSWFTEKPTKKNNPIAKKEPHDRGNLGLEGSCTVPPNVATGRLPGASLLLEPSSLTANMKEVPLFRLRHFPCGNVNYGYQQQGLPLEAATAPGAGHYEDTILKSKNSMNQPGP
Sequence of Vascular endothelial growth factor receptor 2 (P35968 whole entry): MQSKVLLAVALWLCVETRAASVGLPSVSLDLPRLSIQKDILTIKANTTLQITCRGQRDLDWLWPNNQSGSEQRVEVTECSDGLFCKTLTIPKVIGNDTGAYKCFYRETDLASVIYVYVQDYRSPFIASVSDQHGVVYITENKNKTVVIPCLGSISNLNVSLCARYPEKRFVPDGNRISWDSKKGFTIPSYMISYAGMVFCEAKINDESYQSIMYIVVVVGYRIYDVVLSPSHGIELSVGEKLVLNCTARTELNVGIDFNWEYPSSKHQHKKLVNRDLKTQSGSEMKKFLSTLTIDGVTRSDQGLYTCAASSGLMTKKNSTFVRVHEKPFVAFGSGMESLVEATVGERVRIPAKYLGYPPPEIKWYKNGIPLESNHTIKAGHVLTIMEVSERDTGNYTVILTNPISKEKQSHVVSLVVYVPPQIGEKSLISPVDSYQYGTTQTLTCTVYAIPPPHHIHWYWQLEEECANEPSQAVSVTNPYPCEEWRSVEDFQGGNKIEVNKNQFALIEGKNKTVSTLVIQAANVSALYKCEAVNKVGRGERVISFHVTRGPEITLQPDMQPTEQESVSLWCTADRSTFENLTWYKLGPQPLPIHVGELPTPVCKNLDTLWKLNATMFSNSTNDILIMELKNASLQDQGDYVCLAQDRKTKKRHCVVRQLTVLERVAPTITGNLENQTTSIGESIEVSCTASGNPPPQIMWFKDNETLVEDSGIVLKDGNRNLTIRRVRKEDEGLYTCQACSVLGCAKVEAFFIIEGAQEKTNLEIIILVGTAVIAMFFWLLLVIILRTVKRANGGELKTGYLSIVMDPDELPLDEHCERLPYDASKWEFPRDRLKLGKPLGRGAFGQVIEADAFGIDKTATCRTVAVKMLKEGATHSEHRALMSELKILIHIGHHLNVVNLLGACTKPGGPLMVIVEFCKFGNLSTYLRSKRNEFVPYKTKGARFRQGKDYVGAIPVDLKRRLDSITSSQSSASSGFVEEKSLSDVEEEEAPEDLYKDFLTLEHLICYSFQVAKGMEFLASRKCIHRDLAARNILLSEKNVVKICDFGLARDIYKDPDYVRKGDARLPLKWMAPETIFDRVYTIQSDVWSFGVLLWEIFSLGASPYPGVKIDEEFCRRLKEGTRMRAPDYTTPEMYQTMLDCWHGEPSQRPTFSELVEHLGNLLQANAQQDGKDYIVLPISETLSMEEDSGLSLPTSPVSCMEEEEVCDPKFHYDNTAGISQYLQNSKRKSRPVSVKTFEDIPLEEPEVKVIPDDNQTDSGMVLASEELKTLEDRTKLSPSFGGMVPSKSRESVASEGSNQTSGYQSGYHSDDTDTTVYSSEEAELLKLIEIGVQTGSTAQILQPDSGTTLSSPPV
Sequence of Hepatocyte growth factor receptor (P08581 whole entry): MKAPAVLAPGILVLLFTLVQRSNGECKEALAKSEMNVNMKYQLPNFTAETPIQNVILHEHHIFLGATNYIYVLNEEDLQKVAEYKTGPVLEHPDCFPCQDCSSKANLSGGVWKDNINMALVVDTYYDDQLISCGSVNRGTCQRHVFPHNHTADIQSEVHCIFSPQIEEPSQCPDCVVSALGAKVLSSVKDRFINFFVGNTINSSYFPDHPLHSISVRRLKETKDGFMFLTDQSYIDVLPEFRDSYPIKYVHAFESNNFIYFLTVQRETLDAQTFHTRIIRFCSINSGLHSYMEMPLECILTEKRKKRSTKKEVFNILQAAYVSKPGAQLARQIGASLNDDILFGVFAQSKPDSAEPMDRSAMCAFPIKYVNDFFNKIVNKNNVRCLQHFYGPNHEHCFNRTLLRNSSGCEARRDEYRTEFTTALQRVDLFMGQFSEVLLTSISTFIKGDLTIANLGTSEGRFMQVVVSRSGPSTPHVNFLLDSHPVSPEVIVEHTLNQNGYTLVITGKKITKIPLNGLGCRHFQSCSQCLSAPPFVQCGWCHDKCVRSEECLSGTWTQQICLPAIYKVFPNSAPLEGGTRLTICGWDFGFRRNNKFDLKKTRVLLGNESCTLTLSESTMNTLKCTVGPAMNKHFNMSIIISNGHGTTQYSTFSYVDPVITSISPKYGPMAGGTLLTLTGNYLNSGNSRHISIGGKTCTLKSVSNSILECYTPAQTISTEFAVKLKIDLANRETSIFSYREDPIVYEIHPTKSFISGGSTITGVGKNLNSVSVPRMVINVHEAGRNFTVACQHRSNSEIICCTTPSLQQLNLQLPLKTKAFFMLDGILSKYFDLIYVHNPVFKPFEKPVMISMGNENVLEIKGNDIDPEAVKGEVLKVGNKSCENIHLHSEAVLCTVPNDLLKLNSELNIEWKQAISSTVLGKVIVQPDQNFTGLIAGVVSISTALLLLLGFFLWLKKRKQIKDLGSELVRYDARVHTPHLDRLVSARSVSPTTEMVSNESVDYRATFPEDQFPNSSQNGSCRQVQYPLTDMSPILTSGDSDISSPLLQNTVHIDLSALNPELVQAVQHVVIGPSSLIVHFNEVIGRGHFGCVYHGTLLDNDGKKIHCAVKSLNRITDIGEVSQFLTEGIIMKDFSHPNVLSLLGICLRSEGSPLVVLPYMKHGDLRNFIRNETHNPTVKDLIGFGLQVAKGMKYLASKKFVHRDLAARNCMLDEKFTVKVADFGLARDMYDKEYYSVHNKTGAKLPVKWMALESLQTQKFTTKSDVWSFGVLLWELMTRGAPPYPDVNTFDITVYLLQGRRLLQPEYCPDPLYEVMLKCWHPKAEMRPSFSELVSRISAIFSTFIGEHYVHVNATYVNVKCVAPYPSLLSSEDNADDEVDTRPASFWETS

Work on `CCc1cc2c(cc1N1CCN(C3COC3)CC1)C(C)(C)c1[nH]c3cc(C#N)ccc3c1C2=O` yielded an IC50 [1] of over 5000 nM.

In the case of `COc1cc(N2CCC(N)CC2)ccc1Nc1ncc(Cl)c(-c2c[nH]c3ccccc23)n1`, the Ki [2] is reported as 0.75 nM, the IC50 [3] is reported as 2.8 nM and the IC50 [4] is reported as 1.7 nM.

With `Cc1nn(C)c2c1Cc1cnc(N)c(c1)O[C@H](C)c1cc(F)ccc1C(=O)N(C)C2` the logD [5] was 2.2.

With `CCc1cc2c(cc1N1CCC(N3CCOCC3)CC1)C(C)(C)c1[nH]c3cc(C#N)ccc3c1C2=O` [ALECTINIB] the IC50 [6] was 9 nM.

With `C[C@@H]1CN(C(=O)c2ccc(NC(=O)c3cc(O[C@H](C)c4c(Cl)ccc(F)c4Cl)c(N)nn3)cc2)C[C@H](C)N1` [ENSARTINIB] the IC50 [7] was 0.74 nM, the IC50 [8] was 15 nM and the “Ratio IC50” value [9] was 10. For the same compound, the IC50 [10] was under 0.4 nM.

From ChEMBL document CHEMBL4376817, “Drug Discovery Targeting Anaplastic Lymphoma Kinase (ALK)” (J Med Chem, 2019)
